Measured values reported in publication PMC11678425, “(-)-Syringaresinol Exerts an Antidepressant-like Activity in Mice by Noncompetitive Inhibition of the Serotonin Transporter” (Pharmaceuticals, 2024).

Experiments:
[1] = biological target: T1, hSERT D328A (Homo sapiens, UniProt P31645, D328A); test: ASP^+ binding, hSERT D328A; settings: S2 site mutant, read-out: SYR IC50 for Binding
T1 construct: forward and reverse primers were used to amplify a full-length hSERT; expressed in transfected cells; host or cells: HeLa cells, transient, pcDNA3.1
T1 sequence (P31645 whole entry D328A): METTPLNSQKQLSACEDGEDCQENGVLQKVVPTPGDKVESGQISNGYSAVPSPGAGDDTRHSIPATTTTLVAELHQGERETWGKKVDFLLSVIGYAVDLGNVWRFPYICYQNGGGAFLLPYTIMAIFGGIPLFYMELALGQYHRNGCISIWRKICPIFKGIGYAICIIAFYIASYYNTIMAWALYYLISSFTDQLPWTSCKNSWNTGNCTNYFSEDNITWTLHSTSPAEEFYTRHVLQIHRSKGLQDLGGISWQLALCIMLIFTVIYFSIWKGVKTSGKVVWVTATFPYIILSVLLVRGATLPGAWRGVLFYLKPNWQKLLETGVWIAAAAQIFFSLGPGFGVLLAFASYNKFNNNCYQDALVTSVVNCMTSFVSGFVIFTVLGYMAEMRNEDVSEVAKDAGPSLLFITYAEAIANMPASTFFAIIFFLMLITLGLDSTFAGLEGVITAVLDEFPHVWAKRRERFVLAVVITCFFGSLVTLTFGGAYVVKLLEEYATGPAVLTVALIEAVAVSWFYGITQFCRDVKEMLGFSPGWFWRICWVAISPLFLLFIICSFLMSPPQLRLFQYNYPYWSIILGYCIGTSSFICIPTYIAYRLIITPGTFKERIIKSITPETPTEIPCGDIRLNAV

[2] = biological target: T2, hSERT E493N (Homo sapiens, UniProt P31645, E493N); test: APP^+ uptake, hSERT E493N; type: cell-based; settings: S2 site mutant, read-out: SYR IC50 for Transport
T2 construct: forward and reverse primers were used to amplify a full-length hSERT; expressed in transfected cells; host or cells: HeLa cells, transient, pcDNA3.1
T2 sequence (P31645 whole entry E493N): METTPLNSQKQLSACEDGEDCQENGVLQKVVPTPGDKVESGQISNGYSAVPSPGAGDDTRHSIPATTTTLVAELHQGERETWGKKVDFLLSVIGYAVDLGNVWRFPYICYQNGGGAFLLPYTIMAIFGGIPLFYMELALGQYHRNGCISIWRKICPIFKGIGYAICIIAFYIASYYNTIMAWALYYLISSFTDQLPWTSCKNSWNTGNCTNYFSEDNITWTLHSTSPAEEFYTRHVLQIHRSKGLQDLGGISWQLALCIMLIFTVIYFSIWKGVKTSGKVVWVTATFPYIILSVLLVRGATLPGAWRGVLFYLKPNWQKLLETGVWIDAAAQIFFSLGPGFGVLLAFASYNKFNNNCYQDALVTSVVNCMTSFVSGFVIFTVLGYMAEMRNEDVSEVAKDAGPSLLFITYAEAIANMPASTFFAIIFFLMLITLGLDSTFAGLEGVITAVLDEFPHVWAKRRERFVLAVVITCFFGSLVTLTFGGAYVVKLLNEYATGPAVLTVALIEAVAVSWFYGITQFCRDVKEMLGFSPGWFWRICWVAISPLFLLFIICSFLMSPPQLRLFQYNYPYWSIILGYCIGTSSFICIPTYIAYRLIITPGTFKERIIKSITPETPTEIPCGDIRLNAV

[3] = biological target: T3, hSERT I172F (Homo sapiens, UniProt P31645, I172F); test: APP^+ uptake, hSERT I172F; type: cell-based; settings: S1 site mutant, read-out: SYR IC50 for Transport
T3 construct: forward and reverse primers were used to amplify a full-length hSERT; expressed in transfected cells; host or cells: HeLa
T3 sequence (P31645 whole entry I172F): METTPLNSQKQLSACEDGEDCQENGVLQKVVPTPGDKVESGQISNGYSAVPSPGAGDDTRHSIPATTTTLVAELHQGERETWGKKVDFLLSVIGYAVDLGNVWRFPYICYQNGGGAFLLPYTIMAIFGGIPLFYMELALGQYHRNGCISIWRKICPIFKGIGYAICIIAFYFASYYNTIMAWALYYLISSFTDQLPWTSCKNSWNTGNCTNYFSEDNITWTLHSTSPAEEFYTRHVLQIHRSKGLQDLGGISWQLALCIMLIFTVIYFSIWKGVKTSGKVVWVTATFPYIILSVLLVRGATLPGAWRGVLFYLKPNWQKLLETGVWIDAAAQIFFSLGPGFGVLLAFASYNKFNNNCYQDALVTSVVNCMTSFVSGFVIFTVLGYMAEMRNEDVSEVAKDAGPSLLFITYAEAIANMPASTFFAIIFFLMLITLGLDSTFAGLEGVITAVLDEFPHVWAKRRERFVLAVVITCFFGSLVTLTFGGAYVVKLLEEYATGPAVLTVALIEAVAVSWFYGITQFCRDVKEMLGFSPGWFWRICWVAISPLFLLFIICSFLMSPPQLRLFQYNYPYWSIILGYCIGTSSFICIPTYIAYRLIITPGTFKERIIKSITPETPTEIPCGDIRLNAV
Method: (§1) HeLa cells were cultured in Dulbecco’s Modified Eagle’s Medium supplemented with 10% fetal bovine serum, 100 units/mL penicillin, and 100 μg/mL streptomycin at 37 °C in a humidified 5% CO2 incubator. Cells grown at ~70% confluence in a 6 cm culture dish were transfected with hSERT cDNA in pcDNA3.1 by lipofectamine 2000. Transfected cells were incubated for 12 h at 37 °C with 5% CO2 and then transferred into 96-well plates. After being grown for an additional 12–16 h, the cells were then assayed for APP^+ uptake or ASP^+ binding.
(§2) Measurement of transport or ligand binding activity of SERT was performed by using its fluorescent substrate (APP^+) or ligand (ASP^+), respectively. The cells transiently expressing WT or mutants of hSERT were applied for various treatments. Briefly, the cells were washed twice with 100 μL KRH buffer containing 20 mM HEPES (Neofroxx, Einhausen, Germany), pH 7.4, 120 mM NaCl, 1.3 mM KCl, 2.2 mM CaCl2, 1.2 mM MgSO4, and 0.1% (w/v) glucose. APP^+ uptake was measured by adding 100 μL KRH buffer containing 2 μM APP^+ and incubating for 5 min at 22 °C. Excess APP^+ was then removed by 3× rapid washing with 100 μL KRH buffer each time. The extent of APP^+ accumulated in the cells was determined by fluorescence spectrometry with an Infinite 200 Pro microplate reader (Tecan, Männedorf, Switzerland). […]

[4] = biological target: T4, hSERT P499G (Homo sapiens, UniProt P31645, P499G); test: APP^+ uptake, hSERT P499G; type: cell-based; settings: S2 site mutant, read-out: SYR IC50 for Transport
T4 construct: forward and reverse primers were used to amplify a full-length hSERT; expressed in transfected cells; host or cells: HeLa cells, transient, pcDNA3.1

[5] = biological target: T5, hSERT P561G (Homo sapiens, UniProt P31645, P561G); test: ASP^+ binding, hSERT P561G; settings: S2 site mutant, read-out: SYR IC50 for Binding
T5 construct: forward and reverse primers were used to amplify a full-length hSERT; expressed in transfected cells; host or cells: HeLa
T5 sequence (P31645 whole entry P561G): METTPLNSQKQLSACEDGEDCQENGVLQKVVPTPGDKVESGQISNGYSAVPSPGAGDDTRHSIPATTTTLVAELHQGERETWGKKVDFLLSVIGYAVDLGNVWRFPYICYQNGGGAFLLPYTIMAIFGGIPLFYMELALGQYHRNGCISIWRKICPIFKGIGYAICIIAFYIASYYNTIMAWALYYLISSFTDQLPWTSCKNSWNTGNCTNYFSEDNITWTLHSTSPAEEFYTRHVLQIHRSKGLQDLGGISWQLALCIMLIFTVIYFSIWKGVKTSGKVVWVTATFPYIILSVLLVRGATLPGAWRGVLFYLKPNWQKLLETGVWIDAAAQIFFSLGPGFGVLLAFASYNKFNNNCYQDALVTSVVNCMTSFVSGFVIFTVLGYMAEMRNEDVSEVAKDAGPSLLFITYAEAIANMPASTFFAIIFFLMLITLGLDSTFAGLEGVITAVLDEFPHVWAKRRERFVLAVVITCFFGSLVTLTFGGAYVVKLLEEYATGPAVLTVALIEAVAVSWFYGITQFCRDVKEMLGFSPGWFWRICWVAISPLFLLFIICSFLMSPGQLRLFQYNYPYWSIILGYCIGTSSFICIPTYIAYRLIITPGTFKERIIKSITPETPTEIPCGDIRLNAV

[6] = tested on: CUMS mice; settings: all tested dosages, i.p.
[7] = biological target: T6, hSERT S559A (Homo sapiens, UniProt P31645, S559A); test: ASP^+ binding, hSERT S559A; settings: S2 site mutant, read-out: SYR IC50 for Binding
T6 construct: forward and reverse primers were used to amplify a full-length hSERT; expressed in transfected cells; host or cells: HeLa cells, transient, pcDNA3.1

[8] = biological target: T7, hSERT G498T (Homo sapiens, UniProt P31645, G498T); test: APP^+ uptake, hSERT G498T; type: cell-based; settings: S2 site mutant, read-out: SYR IC50 for Transport
T7 construct: forward and reverse primers were used to amplify a full-length hSERT; expressed in transfected cells; host or cells: HeLa cells, transient, pcDNA3.1
T7 sequence (P31645 whole entry G498T): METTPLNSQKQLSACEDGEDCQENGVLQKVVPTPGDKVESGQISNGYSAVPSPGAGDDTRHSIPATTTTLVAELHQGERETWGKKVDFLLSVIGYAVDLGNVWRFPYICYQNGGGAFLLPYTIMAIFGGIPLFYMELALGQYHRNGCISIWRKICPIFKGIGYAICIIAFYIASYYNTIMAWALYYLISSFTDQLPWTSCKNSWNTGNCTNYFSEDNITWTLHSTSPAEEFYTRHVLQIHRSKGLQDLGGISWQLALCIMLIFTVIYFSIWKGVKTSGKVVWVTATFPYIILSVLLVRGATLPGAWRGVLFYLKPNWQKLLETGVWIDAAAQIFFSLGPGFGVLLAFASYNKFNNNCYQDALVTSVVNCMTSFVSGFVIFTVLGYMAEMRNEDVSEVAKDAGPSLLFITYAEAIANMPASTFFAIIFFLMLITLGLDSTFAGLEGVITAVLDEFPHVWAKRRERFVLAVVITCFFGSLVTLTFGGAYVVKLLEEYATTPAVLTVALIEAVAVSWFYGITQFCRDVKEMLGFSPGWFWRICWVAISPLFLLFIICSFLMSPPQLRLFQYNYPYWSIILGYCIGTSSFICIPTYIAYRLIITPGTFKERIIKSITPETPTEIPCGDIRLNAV

[9] = biological target: T8, hSERT R564A (Homo sapiens, UniProt P31645, R564A); test: ASP^+ binding, hSERT R564A; settings: S2 site mutant, read-out: SYR IC50 for Binding
T8 construct: forward and reverse primers were used to amplify a full-length hSERT; expressed in transfected cells; host or cells: HeLa
T8 sequence (P31645 whole entry R564A): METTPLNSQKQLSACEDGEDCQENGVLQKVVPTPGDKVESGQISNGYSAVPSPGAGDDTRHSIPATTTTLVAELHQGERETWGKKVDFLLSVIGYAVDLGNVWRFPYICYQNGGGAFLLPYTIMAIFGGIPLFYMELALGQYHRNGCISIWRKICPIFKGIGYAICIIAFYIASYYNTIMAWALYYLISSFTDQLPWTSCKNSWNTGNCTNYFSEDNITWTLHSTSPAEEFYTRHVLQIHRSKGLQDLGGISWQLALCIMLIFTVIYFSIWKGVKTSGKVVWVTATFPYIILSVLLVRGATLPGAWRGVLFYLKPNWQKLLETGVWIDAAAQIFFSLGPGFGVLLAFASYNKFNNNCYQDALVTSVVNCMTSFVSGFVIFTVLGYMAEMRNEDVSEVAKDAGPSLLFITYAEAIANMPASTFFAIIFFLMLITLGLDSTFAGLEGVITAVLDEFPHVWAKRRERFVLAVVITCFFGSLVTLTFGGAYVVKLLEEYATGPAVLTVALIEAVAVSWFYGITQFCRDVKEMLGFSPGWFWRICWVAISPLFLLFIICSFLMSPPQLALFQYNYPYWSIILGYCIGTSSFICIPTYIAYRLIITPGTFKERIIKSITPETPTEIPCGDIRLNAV

[10] = biological target: T9, hSERT WT (Homo sapiens, UniProt P31645); test: ASP^+ binding, hSERT WT; settings: digitonin-permeabilized cells, read-out: SYR IC50 for Binding
T9 construct: forward and reverse primers were used to amplify a full-length hSERT; expressed in transfected cells; host or cells: HeLa cells (CCL-2), transient, pcDNA3.1
T9 sequence (P31645 whole entry): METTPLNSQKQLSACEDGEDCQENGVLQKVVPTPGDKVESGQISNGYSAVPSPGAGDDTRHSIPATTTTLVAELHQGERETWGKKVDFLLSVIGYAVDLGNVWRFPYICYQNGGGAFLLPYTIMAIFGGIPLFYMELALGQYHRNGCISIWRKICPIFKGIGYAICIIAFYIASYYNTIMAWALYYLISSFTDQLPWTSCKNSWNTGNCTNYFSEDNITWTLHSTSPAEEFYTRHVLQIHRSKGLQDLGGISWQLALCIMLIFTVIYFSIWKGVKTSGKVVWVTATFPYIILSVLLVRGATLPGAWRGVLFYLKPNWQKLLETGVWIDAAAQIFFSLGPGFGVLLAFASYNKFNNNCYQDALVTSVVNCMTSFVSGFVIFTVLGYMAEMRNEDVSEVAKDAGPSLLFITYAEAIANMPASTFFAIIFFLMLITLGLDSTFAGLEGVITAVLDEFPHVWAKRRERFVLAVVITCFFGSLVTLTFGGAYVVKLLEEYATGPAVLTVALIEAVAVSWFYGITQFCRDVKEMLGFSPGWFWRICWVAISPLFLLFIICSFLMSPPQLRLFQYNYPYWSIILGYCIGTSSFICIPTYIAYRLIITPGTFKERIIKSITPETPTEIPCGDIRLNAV

[11] = biological target: T1, hSERT D328A; test: APP^+ uptake, hSERT D328A; type: cell-based; settings: S2 site mutant, read-out: SYR IC50 for Transport
[12] = tested on: CUMS mice; test: Tail suspension test (TST) in CUMS mice; type: in vivo, mouse
Method: C57BL/6 adult (6–8 weeks, body weight, 18–22 g) male mice were maintained and handled in a standard condition at the Experimental Animal Center of Southern Medical University (Guangzhou, China). Animal use was approved by the Animal Use and Care Committee of Southern Medical University (approved code: SMUL2021177, approved date: 12 December 2021). The CUMS procedure was carried out according to a protocol described previously. Except for those in the control group, mice were randomly exposed to two mild unpredictable stressors per day for 3 weeks. The stressors included water deprivation, restraint, tilted cage, wet/no bedding, rotation, peppermint, noise, and inverted light off/on. Mice in the control group were group housed without any stressors throughout the procedure. […] NSFT was performed after 16 h food deprivation, as described previously. The mouse was placed in an open field (24 × 40 × 14 cm), where a new chow was put in the center, and the latency time to bite food was counted over 10 min. Home cage feeding within a 20 min period was measured after the test. FST was carried out according to a protocol described previously. The mouse was placed into a beaker (Bomex, Beijing, China) with a height of 18 cm filled with water (22 ± 1 °C) for 6 min. The immobile time was measured during minutes 2–6. TST was performed according to a previous description. The mouse was suspended from a hook that hung from a suspension bar by placing a piece of adhesive tape on its tail about 1 cm away from the tip. The immobile time during minutes 2–6 was measured.

[13] = biological target: T10, hSERT Q562N (Homo sapiens, UniProt P31645, Q562N); test: APP^+ uptake, hSERT Q562N; type: cell-based; settings: S2 site mutant, read-out: SYR IC50 for Transport
T10 construct: forward and reverse primers were used to amplify a full-length hSERT; expressed in transfected cells; host or cells: HeLa

[14] = biological target: T11, hSERT S438T (Homo sapiens, UniProt P31645, S438T); test: APP^+ uptake, hSERT S438T; type: cell-based; settings: S1 site mutant, read-out: SYR IC50 for Transport
T11 construct: forward and reverse primers were used to amplify a full-length hSERT; expressed in transfected cells; host or cells: HeLa
T11 sequence (P31645 whole entry S438T): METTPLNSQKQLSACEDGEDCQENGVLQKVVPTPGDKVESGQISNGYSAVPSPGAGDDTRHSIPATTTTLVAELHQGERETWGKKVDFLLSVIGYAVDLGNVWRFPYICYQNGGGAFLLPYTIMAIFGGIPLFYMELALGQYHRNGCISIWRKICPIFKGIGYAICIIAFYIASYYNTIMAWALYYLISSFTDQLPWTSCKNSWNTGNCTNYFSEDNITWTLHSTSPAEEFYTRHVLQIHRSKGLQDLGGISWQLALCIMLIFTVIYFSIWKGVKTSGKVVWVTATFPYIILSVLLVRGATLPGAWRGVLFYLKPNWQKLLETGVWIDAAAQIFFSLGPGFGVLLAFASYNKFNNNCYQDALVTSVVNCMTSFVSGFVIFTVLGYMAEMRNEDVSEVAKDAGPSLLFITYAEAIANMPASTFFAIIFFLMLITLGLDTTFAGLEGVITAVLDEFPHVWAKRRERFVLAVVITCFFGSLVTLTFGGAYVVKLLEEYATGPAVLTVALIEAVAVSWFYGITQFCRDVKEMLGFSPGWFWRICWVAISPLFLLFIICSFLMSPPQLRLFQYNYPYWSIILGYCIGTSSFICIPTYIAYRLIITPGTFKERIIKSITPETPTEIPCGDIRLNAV
Method: as §1, §2

[15] = biological target: T12, hSERT I327A (Homo sapiens, UniProt P31645, I327A); test: APP^+ uptake, hSERT I327A; type: cell-based; settings: S2 site mutant, read-out: SYR IC50 for Transport
T12 construct: forward and reverse primers were used to amplify a full-length hSERT; expressed in transfected cells; host or cells: HeLa cells, transient, pcDNA3.1

[16] = biological target: T7, hSERT G498T; test: ASP^+ binding, hSERT G498T; settings: S2 site mutant, read-out: SYR IC50 for Binding
[17] = biological target: T13, hSERT P560G (Homo sapiens, UniProt P31645, P560G); test: APP^+ uptake, hSERT P560G; type: cell-based; settings: S2 site mutant, read-out: SYR IC50 for Transport
T13 construct: forward and reverse primers were used to amplify a full-length hSERT; expressed in transfected cells; host or cells: HeLa cells, transient, pcDNA3.1

[18] = biological target: T2, hSERT E493N; test: ASP^+ binding, hSERT E493N; settings: S2 site mutant, read-out: SYR IC50 for Binding

Q: Which results are given for COc1cc([C@@H]2OC[C@@H]3[C@H]2CO[C@H]3c2cc(OC)c(O)c(OC)c2)cc(OC)c1O [SYR, (-)-syringaresinol]?
A: IC50 [1]: 39.2 ± 0.78 µM; IC50 [2]: 9.16 ± 0.34 µM; IC50 [3]: 2.22 ± 0.04 µM; IC50 [4]: 11 ± 1.43 µM; IC50 [5]: 131 ± 5.72 µM; fatality rate [6]: zero fatality rate; IC50 [7]: 36.8 ± 2.49 µM; IC50 [8]: 40.5 ± 0.54 µM; IC50 [9]: 30.4 ± 1.42 µM; IC50 [10]: 0.96 ± 0.02 µM; IC50 [11]: 19.6 ± 1.21 µM; CUMS-induced increase in immobility time in TST ([12]; 5 mg/kg, i.p., once per day day 7 to 21): effectively attenuate; effect in TST ([12]; 10 or 20 mg/kg (i.p.)): remarkable antidepressant-like effects; IC50 [13]: 48.8 ± 4.51 µM; IC50 [14]: 0.91 ± 0.02 µM; IC50 [15]: 19.5 ± 1.02 µM; IC50 [16]: 91 ± 6.29 µM; IC50 [17]: 5.99 ± 0.96 µM; IC50 [18]: 13.5 ± 1.3 µM
